Data on 24 compounds can be found in paper PMC7261474 (Journal of medicinal chemistry, 2020).

In general, Km refers to the substrate concentration at which the rate is half of its maximum. The kcat is the maximal rate divided by the concentration of active sites.

Several values for one entry are separate records, joined by “and”; a condition that tells them apart may be missing. Equal values may be shown once. Read-outs that look alike come from different tables or passages of the source. Where a SMILES comes first, the peptide text is derived from it. [ ]: non-standard residue; d: D form. The star is where a group is joined. hPhe = N[CH](CCc1ccccc1)C(=O)O; 4Pal = N[CH](Cc1ccncc1)C(=O)O; AMC = Cc1cc(=O)oc2cc(N*)ccc12; Cbz = O=C(OCc1ccccc1)*

Data set [1] relates to T. cruzi (epimastigote forms, strain Y, ATCC 50832GFP). In words: Growth inhibition of T. cruzi epimastigotes in axenic culture. The format is cell-based, Trypanosoma cruzi. The following applies: 5 days.
The target of data set [2] is T1, cruzain (Trypanosoma cruzi, UniProt P25779). Kind of data set: Cruzain-catalysed hydrolysis of fluorogenic dipeptide-AMC substrates. It is filed as biochemical. The note with it: for Km / kcat: pH 7.5, 25 °C, 10% DMSO (v/v); for kcat rel: relative to S1 Cbz-Phe-Arg-AMC, S6 and S12 from 2% DMSO data.
T1 sequence (P25779 123-467): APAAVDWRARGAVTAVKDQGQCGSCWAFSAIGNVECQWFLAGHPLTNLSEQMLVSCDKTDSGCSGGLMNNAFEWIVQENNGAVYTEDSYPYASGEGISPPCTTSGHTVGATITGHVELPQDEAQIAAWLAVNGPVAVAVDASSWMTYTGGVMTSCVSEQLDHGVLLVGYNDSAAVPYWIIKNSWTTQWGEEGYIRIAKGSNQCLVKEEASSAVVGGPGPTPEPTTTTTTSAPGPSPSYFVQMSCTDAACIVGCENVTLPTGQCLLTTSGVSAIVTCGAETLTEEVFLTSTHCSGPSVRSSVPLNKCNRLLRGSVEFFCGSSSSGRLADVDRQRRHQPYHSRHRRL
Data set [3] addresses T1, cruzain. The following applies: 2% DMSO (v/v); ref [40]; cited from earlier work.
Data set [4] can be described thus: Covalent adduct formation with glutathione. It is filed as physicochemical. The note with it: for reaction with GSH (adduct formation): 90 min incubation, 2:1 or 10:1 molar ratio GSH/inhibitor; for rate of formation of GSH adduct: 2:1 molar ratio GSH/inhibitor; for Keq of GSH adduct (apparent equilibrium): 2:1 molar ratio, equilibrium in 90 min.
The test system of data set [5] is Primary human dermal fibroblast (HDF) cells. Kind of data set: Human cell toxicity. It is filed as cell-based. The note with it: CC50 in human dermal fibroblasts / EC50 in infected cardiomyoblasts.
Data set [6] deals with T1, cruzain. In words: Cruzain inhibition/inactivation, time courses with Cbz-Phe-Arg-AMC.
Data set [7] has as its system T. cruzi strain Ca-I/72 in C2C12 mouse cardiomyoblasts. The note with it: ref [55]; cited from earlier work.
Data set [8] concerns the target human cathepsin S (Homo sapiens, UniProt P25774). Kind of data set: Human cathepsin S assay with Cbz-Phe-Arg-AMC. The format is biochemical. The note with it: pH 5.5, 25 °C, 10% DMSO.
The target in data set [9] is human cathepsin B (Homo sapiens, UniProt P07858). Kind of data set: Human cathepsin B assay with Cbz-Phe-Arg-AMC. It is filed as biochemical. The following applies: pH 5.5, 25 °C, 10% DMSO.
Data set [10] concerns the target human cathepsin L (Homo sapiens, UniProt P07711). Kind of data set: Human cathepsin L assay with Cbz-Phe-Arg-AMC. It is filed as biochemical. The following applies: pH 5.5, 25 °C, 10% DMSO.

Chain of human cathepsin L (P07711 114-333): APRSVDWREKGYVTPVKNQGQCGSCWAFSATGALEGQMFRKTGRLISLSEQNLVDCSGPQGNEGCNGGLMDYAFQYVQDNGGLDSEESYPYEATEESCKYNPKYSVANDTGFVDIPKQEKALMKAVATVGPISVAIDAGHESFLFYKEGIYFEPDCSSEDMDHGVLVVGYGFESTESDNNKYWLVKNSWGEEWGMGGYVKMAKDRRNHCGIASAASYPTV
Chain of human cathepsin S (P25774 115-331): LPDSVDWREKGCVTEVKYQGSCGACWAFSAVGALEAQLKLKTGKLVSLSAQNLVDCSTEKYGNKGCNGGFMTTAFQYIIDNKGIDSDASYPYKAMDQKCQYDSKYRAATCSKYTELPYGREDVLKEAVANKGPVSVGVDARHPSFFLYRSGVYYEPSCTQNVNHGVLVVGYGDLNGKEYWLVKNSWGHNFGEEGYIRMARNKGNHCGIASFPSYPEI

Take `O=C(N[C@@H](Cc1ccccc1)C(=O)N[C@H](/C=C/c1ncco1)Cc1ccccc1)OCc1ccccc1` [Compound 24, Benzyl ((S)-1-(((S,E)-4-(Oxazol-2-yl)-1-phenylbut-3-en-2-yl)-amino)-1-oxo-3-phenylpropan-2-yl)carbamate]: the “T. cruzi axenic culture EC50” value in data set [1] is listed as “poorly effective”.
With `Cc1cc(=O)oc2cc(NC(=O)C(CCc3ccccc3)NC(=O)C(CC(C)C)NC(=O)OCc3ccccc3)ccc12` (stereo not drawn) [S3, Cbz-Leu-hPhe-AMC] (Cbz-Leu-[hPhe]-{AMC}; configuration not given here), in data set [2], the Km turned out to be 0.8 ± 0.2 µM and the kcat worked out at 3.0 ± 0.2 s⁻¹.
As for `Cc1cc(=O)oc2cc(NC(=O)C(CCc3ccccc3)NC(=O)C(Cc3ccccc3)NC(=O)N3CCN(C)CC3)ccc12` (stereo not drawn) [S7, NMePip-Phe-hPhe-AMC], in data set [2], the Km was determined as 3.1 ± 0.3 µM, the kcat worked out at 4.0 ± 0.1 s⁻¹ and the kcat rel worked out at 0.42.
In the case of `Cc1cc(=O)oc2cc(NC(=O)C(C)NC(=O)C(Cc3ccccc3)NC(=O)OCc3ccccc3)ccc12` (stereo not drawn) [S12, Cbz-Phe-Ala-AMC], in data set [2], the kcat rel was determined as 0.09. In addition, in [3], the Km is 38 ± 2 µM and the catalytic constant (kcat) is 0.89 ± 0.06 s⁻¹.
As for `O=C(N[C@@H](Cc1ccccc1)C(=O)N[C@H](/C=C/c1ccccn1)Cc1ccccc1)OCc1ccccc1` [Compound 11, Benzyl ((S)-1-Oxo-3-phenyl-1-(((S,E)-1-phenyl-4-(pyridin-2-yl)but-3-en-2-yl)amino)propan-2-yl)carbamate], the “reaction with GSH (adduct formation)” value in data set [4] (pH 8.0) was “no adduct was observed”. For the same compound, the “T. cruzi axenic culture EC50” value in data set [1] was “poorly effective”.
For `C[n+]1ccccc1/C=C/[C@H](Cc1ccccc1)NC(=O)[C@H](Cc1ccccc1)NC(=O)OCc1ccccc1.[I-]` [Compound 12, 2-((S,E)-3-((S)-2-(((Benzyloxy)carbonyl)amino)-3-phenylpropanamido)-4-phenylbut-1-en-1-yl)-1-methylpyridin-1-ium Iodide], in data set [4] (pH 8.0), the “rate of formation of GSH adduct” value came to 37 M⁻¹ s⁻¹ and the “Keq of GSH adduct (apparent equilibrium)” value came to 7400 M⁻¹. Besides, the “conversion to GSH adduct” value in [4] (20 min, 10:1 molar ratio of GSH to compound) is 97%. In [5], the “selectivity index CC50/EC50” value is greater than 10.
Regarding `C[n+]1ccsc1/C=C/[C@H](Cc1ccccc1)NC(=O)[C@H](Cc1ccccc1)NC(=O)OCc1ccccc1.[I-]` [Compound 26, 2-((S,E)-3-((S)-2-(((Benzyloxy)carbonyl)amino)-3-phenylpropanamido)-4-phenylbut-1-en-1-yl)-3-methylthiazol-3-ium Iodide], in data set [4] (pH 8.0), the “rate of formation of GSH adduct” value stood at 15 M⁻¹ s⁻¹ and the “Keq of GSH adduct (apparent equilibrium)” value worked out at 930 M⁻¹.
On to `CN1CCN(C(=O)N[C@@H](Cc2ccccc2)C(=O)N[C@H](/C=C/S(=O)(=O)c2ccccc2)CCc2ccccc2)CC1` [K11777, reference compound], for which, in data set [4] (0.5 mM compound, 1 mM GSH, pH 8.0), the “rate of glutathione adduct formation k” value stood at 0.00028 s⁻¹.
For the compound `Cc1cc(=O)oc2cc(NC(=O)[C@H](Cc3ccccc3)NC(=O)[C@H](Cc3ccccc3)NC(=O)OCc3ccccc3)ccc12` [S9, Cbz-Phe-Phe-AMC] (Cbz-Phe-Phe-{AMC}), in data set [2], the Km was 0.34 ± 0.06 µM, the kcat came out at 0.26 ± 0.01 s⁻¹ and the kcat rel turned out to be 0.03.
For the compound `O=C(N[C@@H](Cc1ccccc1)C(=O)N[C@H](/C=C/c1nccs1)Cc1ccccc1)OCc1ccccc1` [Compound 25, Benzyl ((S)-1-Oxo-3-phenyl-1-(((S,E)-1-phenyl-4-(thiazol-2-yl)-but-3-en-2-yl)amino)propan-2-yl)carbamate], the “reaction with GSH (adduct formation)” value in data set [4] (pH 8.0) is “no adduct was observed”.
In data set [6], `O=C(N[C@@H](Cc1ccccc1)C(=O)NC(CCc1ncccn1)Cc1ccccc1)OCc1ccccc1` (stereo in doubt) [Compound 27, Benzyl ((S)-1-Oxo-3-phenyl-1-(((S)-1-phenyl-4-(pyrimidin-2-yl)-butan-2-yl)amino)propan-2-yl)carbamate] displayed a Ki of 22 µM.
For the compound `Cc1cc(=O)oc2cc(NC(=O)[C@H](Cc3ccccc3)NC(=O)[C@H](Cc3ccccc3)NC(=O)N3CCN(C)CC3)ccc12` [S11, NMePip-Phe-Phe-AMC], in data set [2], the Km was 14 ± 4 µM, the kcat turned out to be 2.8 ± 0.06 s⁻¹ and the kcat rel is 0.29.
As to `Cc1cc(=O)oc2cc(NC(=O)[C@H](CCc3ccccc3)NC(=O)[C@H](Cc3ccccc3)NC(=O)OCc3ccccc3)ccc12` [S2, Cbz-Phe-hPhe-AMC] (Cbz-Phe-[hPhe]-{AMC}), in [2], the Km was 0.26 ± 0.06 µM, the kcat was 2.0 ± 0.2 s⁻¹ and the kcat rel is 0.21.
For the compound `O=C(N[C@@H](Cc1ccccc1)C(=O)N[C@H](/C=C/c1ccccn1)CCc1ccccc1)OCc1ccccc1` [Compound 13, Benzyl ((S)-1-Oxo-3-phenyl-1-(((S,E)-5-phenyl-1-(pyridin-2-yl)pent-1-en-3-yl)amino)propan-2-yl)carbamate], in [1], the “T. cruzi axenic culture EC50” value is on record as “poorly effective”.
Regarding `Cc1cc(=O)oc2cc(NC(=O)[C@H](CCCN=C(N)N)NC(=O)[C@H](CCCN=C(N)N)NC(=O)OCc3ccccc3)ccc12` [S6, Cbz-Arg-Arg-AMC] (Cbz-Arg-Arg-{AMC}), the kcat rel in [2] was found to be 0.75. In [3], the Km is 3.7 ± 0.4 µM and the kcat was 7.2 ± 0.1 s⁻¹.
With `Cc1cc(=O)oc2cc(NC(=O)C(Cc3ccncc3)NC(=O)C(Cc3ccccc3)NC(=O)OCc3ccccc3)ccc12` (stereo not drawn) [S5, Cbz-Phe-(4-Pyr)Ala-AMC] (Cbz-Phe-[4Pal]-{AMC}; configuration not given here), in data set [2], the Km was 3.7 ± 0.5 µM, the kcat is 7.5 ± 0.5 s⁻¹ and the kcat rel worked out at 0.76.
In data set [6], `C[n+]1ccccc1/C=C/[C@H](CCc1ccccc1)NC(=O)[C@H](Cc1ccccc1)NC(=O)OCc1ccccc1` [Compound 15, 2-((S,E)-3-((S)-2-(((Benzyloxy)carbonyl)amino)-3-phenylpropanamido)-5-phenylpent-1-en-1-yl)-1-methylpyridin-1-ium] came in with a Ki of 0.6 ± 0.2 µM. Moreover, in data set [6] (pH 7.5, global fitting to eq 6), the “k3 (eq 6)” value came out at 0.0012 ± 0.0004 s⁻¹ and the “k4 (eq 6)” value stood at 0.00019 ± 0.00005 s⁻¹. In data set [4] (pH 8.0), the “rate of formation of GSH adduct” value came to 54 M⁻¹ s⁻¹ and the “Keq of GSH adduct (apparent equilibrium)” value worked out at 2400 M⁻¹. Further, the “selectivity index CC50/EC50” value in data set [5] was greater than 20.
Regarding `O=C(N[C@@H](Cc1ccccc1)C(=O)N[C@H](/C=C/c1ncccn1)Cc1ccccc1)OCc1ccccc1` [Compound 7, Benzyl ((S)-1-Oxo-3-phenyl-1-(((S,E)-1-phenyl-4-(pyrimidin-2-yl)-but-3-en-2-yl)amino)propan-2-yl)carbamate], the “reaction with GSH (adduct formation)” value in data set [4] (pH 8.0) was “no adduct was observed”.
In the case of `O=C(Cn1ccnc1[N+](=O)[O-])NCc1ccccc1` [benznidazole], the “LD50 (antichagasic potency)” value in data set [7] was 1.5 µM.
As for `Cc1cc(=O)oc2cc(NC(=O)[C@H](CCCN=C(N)N)NC(=O)[C@H](Cc3ccccc3)NC(=O)OCc3ccccc3)ccc12` [S1, Cbz-Phe-Arg-AMC, reference compound] (Cbz-Phe-Arg-{AMC}), in [2], the Km amounted to 0.89 ± 0.09 µM, the kcat is 9.6 ± 0.2 s⁻¹ and the kcat rel is 1.00. Moreover, the “Michaelis constant, cathepsin S” value in data set [8] was 60 µM. Further, the “Michaelis constant, cathepsin B” value in [9] came to 150 µM. In data set [10], the “Michaelis constant, cathepsin L” value is 2.9 µM.
In the case of `O=C(N[C@@H](Cc1ccccc1)C(=O)N[C@H](/C=C/c1cc(C(F)(F)F)ccn1)CCc1ccccc1)OCc1ccccc1` [Compound 17, Benzyl ((S)-1-Oxo-3-phenyl-1-(((S,E)-5-phenyl-1-(4-(trifluoromethyl)pyridin-2-yl)pent-1-en-3-yl)amino)propan-2-yl)-carbamate], the “reaction with GSH (adduct formation)” value in data set [4] (pH 8.0) is recorded as “no adduct was observed”.
Turning to `Cc1cc(=O)oc2cc(NC(=O)C(CCc3ccccc3)NC(=O)C(CCCN=C(N)N)NC(=O)OCc3ccccc3)ccc12` (stereo not drawn) [S10, Cbz-Arg-hPhe-AMC], in data set [2], the Km came to 6.8 ± 0.4 µM; the kcat is 4.9 s⁻¹ and 4.9 ± 0.1 s⁻¹; the kcat rel amounted to 0.51.
With `Cc1cc(=O)oc2cc(NC(=O)[C@H](CCc3ccccc3)NC(=O)[C@H](Cc3ccncc3)NC(=O)OCc3ccccc3)ccc12` [S8, Cbz-(4-Pyr)Ala-hPhe-AMC] (Cbz-[4Pal]-[hPhe]-{AMC}), in data set [2], the Km was 4.6 ± 0.5 µM; the kcat was 5.3 s⁻¹ and 5.3 ± 0.2 s⁻¹; the kcat rel was found to be 0.55.
Turning to `Cc1cc(=O)oc2cc(NC(=O)[C@H](CCCN=C(N)N)NC(=O)[C@H](CC(C)C)NC(=O)OCc3ccccc3)ccc12` [S4, Cbz-Leu-Arg-AMC], in data set [2], the Km is 2.2 ± 0.3 µM, the catalytic constant (kcat) came to 8.4 ± 0.4 s⁻¹ and the kcat rel worked out at 0.88.
